Experiments:
[1] = target: T1, KRAS (G12D) (Homo sapiens, UniProt P01116, G12D); test: KRAS (G12D) cellular degradation assay in AsPC-1 cells; type: cell-based; conditions: 24 hours, antibody fluorescence (Odyssey CLX), DC50 half-maximal degradation concentration
T1 construct: in-cell western with KRAS G12D antibody after 24 h
Method in brief: (§1)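 AsPC-1 cells were seeded at 22,000/well for degradation and 3,500/well for proliferation. Compounds in 1:3 dilutions ([…] to 1.5 nM final) ran 24 h for degradation, read by in-cell immunofluorescence of KRAS G12D normalised to β-actin, and 6 days for proliferation (CellTiter Glo luminescence). DC50/IC50 came from dose-response fits.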

[2] = test system: AsPC-1 cells; test: AsPC-1 cell proliferation assay (CellTiter Glo); type: cell-based; conditions: Homo sapiens, ASPC1, 144 h, 6 days
Method in brief: as §1

T1 sequence (P01116 1-188 isoform P01116-2 G12D): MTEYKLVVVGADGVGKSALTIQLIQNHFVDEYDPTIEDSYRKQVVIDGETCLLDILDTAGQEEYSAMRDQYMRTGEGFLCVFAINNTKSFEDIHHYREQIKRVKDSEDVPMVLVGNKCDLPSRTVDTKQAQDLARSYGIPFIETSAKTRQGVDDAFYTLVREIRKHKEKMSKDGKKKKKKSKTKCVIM

Row | SMILES | DC50 [1] [nM] | IC50 [2] [nM]
1 | CO[C@@H](C)COc1nc(N(C)[C@@H]2CCNC2)c2cc(C3CC3)c(-c3c(C)c(F)cc4[nH]ncc34)c(OCc3ccc(-c4cn([C@H](C(=O)N5C[C@H](O)C[C@H]5C(=O)N[C@H](c5ccc(-c6scnc6C)cc5)[C@H](C)O)C(C)C)nn4)cc3)c2n1 [Example 187, (2S,4R)-1-((2S)-2-(4-(4-(((6-cyclopropyl-7-(6-fluoro-5-methyl-1H-indazol-4-yl)-2-((S)-2-methoxypropoxy)-4-(methyl((R)-pyrrolidin-3-yl)amino)quinazolin-8-yl)oxy)methyl)phenyl)-1H-1,2,3-triazol-1-yl)-3-methylbutanoyl)-4-hydroxy-N-((1R,2S)-2-hydroxy-1-(4-(4-methylthiazol-5-yl)phenyl)propyl)pyrrolidine-2-carboxamide] | < 10 | < 10
2 | CO[C@@H](C)COc1nc(N2C[C@@H]3C[C@H]2CN3)c2cc(C3CC3)c(-c3c(C)c(F)cc4[nH]ncc34)c(OCc3ccc(-c4cn([C@H](C(=O)N5C[C@H](O)C[C@H]5C(=O)N[C@H](C#Cc5cc(C)cc6[nH]ncc56)CO)C(C)C)nn4)cc3)c2n1 [Example 188, (2S,4R)-1-((2S)-2-(4-(4-(((4-((1S,4S)-2,5-diazabicyclo[2.2.1]heptan-2-yl)-6-cyclopropyl-7-(6-fluoro-5-methyl-1H-indazol-4-yl)-2-((S)-2-methoxypropoxy)quinazolin-8-yl)oxy)methyl)phenyl)-1H-1,2,3-triazol-1-yl)-3-methylbutanoyl)-4-hydroxy-N—((R)-1-hydroxy-4-(6-methyl-1H-indazol-4-yl)but-3-yn-2-yl)pyrrolidine-2-carboxamide] | 10 to 100 | 10 to 100
3 | CO[C@@H](C)COc1nc(N2CCNCC[C@H]2C)c2cc(C3CC3)c(-c3c(C)c(F)cc4[nH]ncc34)c(OCc3ccc(-c4cn([C@H](C(=O)N5C[C@H](O)C[C@H]5C(=O)N[C@@H](CO)c5ccc(-c6scnc6C)cc5)C(C)C)nn4)cc3)c2n1 [Example 189, (2S,4R)-1-((2S)-2-(4-(4-(((6-cyclopropyl-7-(6-fluoro-5-methyl-1H-indazol-4-yl)-2-((S)-2-methoxypropoxy)-4-((R)-7-methyl-1,4-diazepan-1-yl)quinazolin-8-yl)oxy)methyl)phenyl)-1H-1,2,3-triazol-1-yl)-3-methylbutanoyl)-4-hydroxy-N—((R)-2-hydroxy-1-(4-(4-methylthiazol-5-yl)phenyl)ethyl)pyrrolidine-2-carboxamide] | < 10 | < 10
4 | CO[C@@H](C)COc1nc(N2CCNCC[C@H]2C)c2cc(C3CC3)c(-c3c(C)c(F)cc4[nH]ncc34)c(OCc3ccc(-c4cn([C@H](C(=O)N5C[C@H](O)C[C@H]5C(=O)N[C@H](c5ccc(-c6scnc6C)cc5)[C@H](C)O)C(C)C)nn4)cc3)c2n1 [Example 190, (2S,4R)-1-((2S)-2-(4-(4-(((6-cyclopropyl-7-(6-fluoro-5-methyl-1H-indazol-4-yl)-2-((S)-2-methoxypropoxy)-4-((R)-7-methyl-1,4-diazepan-1-yl)quinazolin-8-yl)oxy)methyl)phenyl)-1H-1,2,3-triazol-1-yl)-3-methylbutanoyl)-4-hydroxy-N-((1R,2S)-2-hydroxy-1-(4-(4-methylthiazol-5-yl)phenyl)propyl)pyrrolidine-2-carboxamide] | < 10 | < 10
5 | CCn1nccc1-c1ccc([C@H](CO)NC(=O)[C@@H]2C[C@@H](O)CN2C(=O)[C@H](C(C)C)n2cc(-c3ccc(COc4c(-c5c(C)c(F)cc6[nH]ncc56)c(C5CC5)cc5c(N(C)[C@@H]6CCNC6)nc(OC[C@H](C)OC)nc45)cc3)nn2)c2c1CC2 [Example 192, (2S,4R)-1-((2S)-2-(4-(4-(((6-cyclopropyl-7-(6-fluoro-5-methyl-1H-indazol-4-yl)-2-((S)-2-methoxypropoxy)-4-(methyl((R)-pyrrolidin-3-yl)amino)quinazolin-8-yl)oxy)methyl)phenyl)-1H-1,2,3-triazol-1-yl)-3-methylbutanoyl)-N—((R)-1-(5-(1-ethyl-1H-pyrazol-5-yl)bicyclo[4.2.0]octa-1(6),2,4-trien-2-yl)-2-hydroxyethyl)-4-hydroxypyrrolidine-2-carboxamide] | < 10 | < 10
6 | CCn1nccc1-c1ccc([C@@H](NC(=O)[C@@H]2C[C@@H](O)CN2C(=O)[C@H](C(C)C)n2cc(-c3ccc(COc4c(-c5c(C)c(F)cc6[nH]ncc56)c(C5CC5)cc5c(N6C[C@@H]7C[C@H]6CN7)nc(O[C@H]6C[C@H](OC)C6)nc45)cc3)nn2)[C@H](C)O)cn1 [Example 193, (2S,4R)-1-((2S)-2-(4-(4-(((4-((1S,4S)-2,5-diazabicyclo[2.2.1]heptan-2-yl)-6-cyclopropyl-7-(6-fluoro-5-methyl-1H-indazol-4-yl)-2-((1r,3S)-3-methoxycyclobutoxy)quinazolin-8-yl)oxy)methyl)phenyl)-1H-1,2,3-triazol-1-yl)-3-methylbutanoyl)-N-((1R,2S)-1-(6-(1-ethyl-1H-pyrazol-5-yl)pyridin-3-yl)-2-hydroxypropyl)-4-hydroxypyrrolidine-2-carboxamide] | 10 to 100 | < 10
7 | CO[C@H]1C[C@H](Oc2nc(N(C)[C@H]3CCNC3)c3cc(C4CC4)c(-c4c(C)c(F)cc5[nH]ncc45)c(OCc4ccc(-c5cn([C@H](C(=O)N6C[C@H](O)C[C@H]6C(=O)N[C@H](c6ccc(-c7scnc7C)c7c6CC7)[C@H](C)O)C(C)C)nn5)cc4)c3n2)C1 [Example 194, (2S,4R)-1-((2S)-2-(4-(4-(((6-cyclopropyl-7-(6-fluoro-5-methyl-1H-indazol-4-yl)-2-((1r,3S)-3-methoxycyclobutoxy)-4-(methyl((S)-pyrrolidin-3-yl)amino)quinazolin-8-yl)oxy)methyl)phenyl)-1H-1,2,3-triazol-1-yl)-3-methylbutanoyl)-4-hydroxy-N-((1R,2S)-2-hydroxy-1-(5-(4-methylthiazol-5-yl)bicyclo[4.2.0]octa-1(6),2,4-trien-2-yl)propyl)pyrrolidine-2-carboxamide] | < 10 | < 10
8 | CCn1nccc1-c1ccc([C@@H](NC(=O)[C@@H]2C[C@@H](O)CN2C(=O)[C@H](C(C)C)n2cc(-c3ccc(COc4c(-c5c(C)c(F)cc6[nH]ncc56)c(C5CC5)cc5c(N6C[C@@H]7C[C@H]6CN7)nc(O[C@H]6C[C@H](OC)C6)nc45)cc3)nn2)[C@H](C)O)cc1F [Example 195, (2S,4R)-1-((2S)-2-(4-(4-(((4-((1S,4S)-2,5-diazabicyclo[2.2.1]heptan-2-yl)-6-cyclopropyl-7-(6-fluoro-5-methyl-1H-indazol-4-yl)-2-((1r,3S)-3-methoxycyclobutoxy)quinazolin-8-yl)oxy)methyl)phenyl)-1H-1,2,3-triazol-1-yl)-3-methylbutanoyl)-N-((1R,2S)-1-(4-(1-ethyl-1H-pyrazol-5-yl)-3-fluorophenyl)-2-hydroxypropyl)-4-hydroxypyrrolidine-2-carboxamide] | < 10 | < 10
